Source: patent US9156877B2, “17-hydroxy-17-pentafluorethyl-estra-4,9(10)-dien-11-benzylidene derivatives, methods for the production thereof and use thereof for treating diseases” (Bayer Intellectual Property GmbH, priority 2009, dated 2015)
Values after ≈ are worked out from the molar mass of the structure shown.

Assays:
[1] = biological target: T1, human progesterone receptor B (Homo sapiens, UniProt P06401); assay: Progesterone receptor-antagonistic action in stably transfected SK-N-MC cells with MMTV-LUC reporter (PR-B); format: cell-based; conditions: antagonistic potency against 0.1 nmol/l promegestone, 24 hours, luciferase
T1 construct: expressed in transfected cells; host or cells: SK-N-MC human neuroblastoma cells, stably transfected with pRChPR-B-neo and pMMTV-LUC
T1 sequence (P06401 1-933): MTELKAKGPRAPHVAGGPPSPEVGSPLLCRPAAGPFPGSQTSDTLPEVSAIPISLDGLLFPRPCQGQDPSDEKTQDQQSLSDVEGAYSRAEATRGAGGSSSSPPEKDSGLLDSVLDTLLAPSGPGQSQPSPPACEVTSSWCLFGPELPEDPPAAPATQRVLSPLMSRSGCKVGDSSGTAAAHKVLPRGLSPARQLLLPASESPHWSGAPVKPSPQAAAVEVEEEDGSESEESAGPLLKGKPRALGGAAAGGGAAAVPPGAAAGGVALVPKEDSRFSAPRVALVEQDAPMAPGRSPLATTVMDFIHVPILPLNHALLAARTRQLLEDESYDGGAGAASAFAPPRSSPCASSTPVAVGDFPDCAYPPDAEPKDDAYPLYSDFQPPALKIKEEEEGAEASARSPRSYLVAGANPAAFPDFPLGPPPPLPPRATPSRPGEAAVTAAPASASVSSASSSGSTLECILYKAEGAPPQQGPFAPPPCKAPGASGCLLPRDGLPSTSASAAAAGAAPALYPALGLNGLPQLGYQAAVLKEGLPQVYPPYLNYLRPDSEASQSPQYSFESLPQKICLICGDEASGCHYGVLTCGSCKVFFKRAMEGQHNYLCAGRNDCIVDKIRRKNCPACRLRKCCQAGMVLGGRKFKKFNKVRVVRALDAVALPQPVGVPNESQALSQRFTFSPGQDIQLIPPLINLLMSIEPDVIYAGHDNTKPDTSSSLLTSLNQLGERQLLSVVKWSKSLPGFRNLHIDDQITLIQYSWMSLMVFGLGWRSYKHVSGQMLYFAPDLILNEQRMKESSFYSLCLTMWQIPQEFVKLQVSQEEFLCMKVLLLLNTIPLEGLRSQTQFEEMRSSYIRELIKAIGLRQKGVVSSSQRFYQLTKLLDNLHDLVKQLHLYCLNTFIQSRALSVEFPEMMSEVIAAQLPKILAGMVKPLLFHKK
Description: (§1) Determination of Progesterone Receptor-Antagonistic Action in Stable Transfectants of Human Neuroblastoma Cells (SK-N-MC Cells) with the Human Progesterone A or Progesterone B Receptor and an MN-LUC Reporter Construct
(§2) SK-N-MC cells (human neuroblastoma cells) which have been stably transfected with plasmids expressing the human progesterone receptor B (pRChPR-B-neo) or the human progesterone receptor A (pRChPR-A-neo) and a reporter construct (pMMTV-LUC) were incubated for 24 hours either in the absence (negative control) or in the presence of ascending amounts of the particular test compound (0.01 nmol/l, 0.1 nmol/l, 1 nmol/l, 10 nmol/l, 100 nmol/l and […]), in order to determine the agonistic efficacy. As a positive control of the reporter gene induction, the cells were treated with the synthetic gestagen promegestone (0.01 nmol/l, 0.1 nmol/l, 1 nmol/l, 10 nmol/l, 100 nmol/l and […]). To determine the antagonistic activity, the cells were treated with 0.1 nmol/l promegestone and additionally with ascending amounts of the particular test compound (0.01 nmol/l, 0.1 nmol/l, 1 nmol/l, 10 nmol/l, 100 nmol/l and […]). The activity of the reporter gene LUC (LUC=luciferase) was determined in the cell lysates and measured as RLU (relative light units). All measurements are reported as % efficacy and as EC50 and IC50 concentrations.

[2] = Metabolic stability in human liver microsomes; format: in vitro ADME; conditions: 1 μM, well-stirred model
Description: (§3) Determination of Metabolic Stability in Human and Rat Liver Microsomes
Isolated human liver microsomes (HLM) were used to assess the metabolic stability of compounds of general formula I.
(§4) The incubations were conducted with 2.4 ml of HLM solution (protein content 0.5 mg/ml), 30 μl of the test compound (final concentration 1 μM) and 0.6 ml of the cofactor mixture (═NADPH-generating system composed of 3 IU glucose-6-phosphate dehydrogenase, 14.6 mg glucose-6-phosphate, 1.2 mg NADP) at 37° C. in 100 mM phosphate buffer at pH 7.4. Samples were taken at 6 time points (2-60 min) and precipitated with an equal volume of methanol, and the recovery of the test substances used in the supernatant was determined by LC-MS/MS analysis. The half-life of substance degradation determined therefrom was used to calculate what is called the intrinsic clearance of the substance in the liver microsome preparation. […] In addition, under the assumptions that (i) absorption of the test substance is 100%, and (ii) the first pass is completely reflected by liver microsome metabolism, a maximum oral bioavailability (Fmax) was calculated.

[3] = Metabolic stability in rat liver microsomes; format: in vitro ADME; conditions: well-stirred model
Description: as §3, §4

[4] = Solubility in aqueous medium at pH 7.4; format: physicochemical; conditions: aqueous medium, pH 7.4, aqueous buffer
From the text: In addition, some compounds have an unusually good solubility, for this active ingredient class, in aqueous medium under physiological conditions (Table 2).

[5] = biological target: T2, human progesterone receptor A (Homo sapiens, UniProt P06401); assay: Progesterone receptor-antagonistic action in stably transfected SK-N-MC cells with MMTV-LUC reporter (PR-A); format: cell-based; conditions: antagonistic potency against 0.1 nmol/l promegestone, 24 hours, luciferase
T2 construct: expressed in transfected cells; host or cells: SK-N-MC human neuroblastoma cells, stably transfected with pRChPR-A-neo and pMMTV-LUC
T2 sequence (P06401 1-769 isoform P06401-2): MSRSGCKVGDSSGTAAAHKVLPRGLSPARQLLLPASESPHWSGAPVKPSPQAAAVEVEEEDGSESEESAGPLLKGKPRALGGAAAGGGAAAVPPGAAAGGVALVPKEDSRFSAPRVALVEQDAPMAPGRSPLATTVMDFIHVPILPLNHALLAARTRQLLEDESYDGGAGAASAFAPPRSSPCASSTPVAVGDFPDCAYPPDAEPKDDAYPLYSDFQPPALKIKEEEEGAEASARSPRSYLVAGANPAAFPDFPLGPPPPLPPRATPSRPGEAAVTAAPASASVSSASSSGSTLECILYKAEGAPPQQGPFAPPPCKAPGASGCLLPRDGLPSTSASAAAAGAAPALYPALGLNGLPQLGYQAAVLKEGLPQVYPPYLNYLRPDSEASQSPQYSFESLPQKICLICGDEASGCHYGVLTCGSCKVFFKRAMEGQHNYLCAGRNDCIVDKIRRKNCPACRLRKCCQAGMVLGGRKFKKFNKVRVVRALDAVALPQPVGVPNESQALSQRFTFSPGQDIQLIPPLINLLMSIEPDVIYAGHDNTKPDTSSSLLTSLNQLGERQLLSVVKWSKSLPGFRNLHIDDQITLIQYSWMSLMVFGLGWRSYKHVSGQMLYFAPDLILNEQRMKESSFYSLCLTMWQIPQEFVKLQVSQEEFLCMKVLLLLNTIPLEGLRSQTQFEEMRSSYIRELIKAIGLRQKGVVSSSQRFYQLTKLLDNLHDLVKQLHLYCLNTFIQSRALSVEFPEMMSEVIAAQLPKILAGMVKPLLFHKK
Description: as §1, §2

Compound | IC50 [1] [nM] | Predicted clearance [l/h/kg] Human [2] [L/h/kg] | Predicted clearance [l/h/kg] Rat [3] [L/h/kg] | solubility [4] [µg/mL] | IC50 [5] [nM]
C=Cc1ccc([C@H]2C[C@@]3(C)[C@@H](CC[C@@]3(O)C(F)(F)C(F)(F)F)[C@@H]3CCC4=CC(=O)CCC4=C32)cc1 [Example 1, (8S,11R,13S,14S,17S)-17-hydroxy-13-methyl-17-pentafluoroethyl-11-(4-vinylphenyl)-1,2,6,7,8,11,12,13,14,15,16,17-dodecahydrocyclopenta[a]phenanthren-3-one] | 0.012 | 0.90 | 1.9 | 6 (≈ 12.2 µM) | 
C[C@]12C[C@H](c3ccc(CO)cc3)C3=C4CCC(=O)C=C4CC[C@H]3[C@@H]1CC[C@@]2(O)C(F)(F)C(F)(F)F [Ref. 1, (8S,11R,13S,14S,17S)-17-hydroxy-11-[4-(hydroxymethyl)phenyl]-13-methyl-17-pentafluoroethyl-1,2,6,7,8,11,12,13,14,15,16,17-dodecahydrocyclopenta[a]phenanthren-3-one, reference compound] | 0.8 | 0.7 | 0.8 |  | 0.7
C[C@]12C[C@H](c3ccc(/C=C/CNC(=O)Nc4ccc(C(=O)O)cc4)cc3)C3=C4CCC(=O)C=C4CC[C@H]3[C@@H]1CC[C@@]2(O)C(F)(F)C(F)(F)F [Example 56, 4-(3-{(E)-3-[4-((8S,11R,13S,14S,17S)-17-hydroxy-13-methyl-3-oxo-17-pentafluoroethyl-2,3,6,7,8,11,12,13,14,15,16,17-dodecahydro-1H-cyclopenta[a]phenanthren-11-yl)phenyl]allyl}ureido)benzoic acid] | 1.9 |  |  |  | 0.9
COC(=O)C(C/C=C/c1ccc([C@H]2C[C@@]3(C)[C@@H](CC[C@@]3(O)C(F)(F)C(F)(F)F)[C@@H]3CCC4=CC(=O)CCC4=C32)cc1)C(=O)OC [Example 4, 2-{(E)-3-[4-((8S,11R,13S,14S,17S)-17-hydroxy-13-methyl-3-oxo-17-pentafluoroethyl-2,3,6,7,8,11,12,13,14,15,16,17-dodecahydro-1H-cyclopenta[a]phenanthren-11-yl)phenyl]allyl}malonic acid dimethyl ester] | 1.1 |  |  |  | 1
CC(C)CO/N=C/c1ccc([C@H]2C[C@@]3(C)[C@@H](CC[C@@]3(O)C(F)(F)C(F)(F)F)[C@@H]3CCC4=CC(=O)CCC4=C32)cc1 [Example 38, 4-((8S,11R,13S,14S,17S)-17-hydroxy-13-methyl-3-oxo-17-pentafluoroethyl-2,3,6,7,8,11,12,13,14,15,16,17-dodecahydro-1H-cyclopenta[a]phenanthren-11-yl)benzaldehyde O-isobutyl oxime] | 0.1 |  |  |  | 0.09
CC(C)(C)c1ccc(NC(=O)NC/C=C/c2ccc([C@H]3C[C@@]4(C)C(CC[C@@]4(O)C(F)(F)C(F)(F)F)C4CCC5=CC(=O)CCC5=C43)cc2)cc1 (stereo partly drawn) [Example 47] | 0.3 |  |  |  | 0.8
C[C@]12C[C@H](c3ccc(/C=C/CNC(=O)NCCC(=O)O)cc3)C3=C4CCC(=O)C=C4CCC3C1CC[C@@]2(O)C(F)(F)C(F)(F)F (stereo partly drawn) [Example 50, (3-{(E)-3-[4-((8S,11R,13S,14S,17S)-17-hydroxy-13-methyl-3-oxo-17-pentafluoroethyl-2,3,6,7,8,11,12,13,14,15,16,17-dodecahydro-1H-cyclopenta[a]phenanthren-11-yl)phenyl]allyl}ureido)propionic acid] | 3 |  |  |  | 8
CCOC(=O)/C=C/C=C/c1ccc([C@H]2C[C@@]3(C)[C@@H](CC[C@@]3(O)C(F)(F)C(F)(F)F)[C@@H]3CCC4=CC(=O)CCC4=C32)cc1 [Example 15, (2E,4E)-5-[4-((8S,11R,13S,14S,17S)-17-hydroxy-13-methyl-3-oxo-17-pentafluoroethyl-2,3,6,7,8,11,12,13,14,15,16,17-dodecahydro-1H-cyclopenta[a]phenanthren-11-yl)phenyl]penta-2,4-dienoic acid ethyl ester] | < 0.01 |  |  |  | 0.011
CCOC(=O)/C=C/c1ccc([C@H]2C[C@@]3(C)[C@@H](CC[C@@]3(O)C(F)(F)C(F)(F)F)[C@@H]3CCC4=CC(=O)CCC4=C32)cc1 [Example 12, (E)-3-[4-((8S,11R,13S,14S,17S)-17-hydroxy-13-methyl-3-oxo-17-pentafluoroethyl-2,3,6,7,8,11,12,13,14,15,16,17-dodecahydro-1H-cyclopenta[a]phenanthren-11-yl)phenyl]acrylic acid ethyl ester] | 0.26 |  |  |  | 0.13
COc1ccc(C/C=C/c2ccc([C@H]3C[C@@]4(C)[C@@H](CC[C@@]4(O)C(F)(F)C(F)(F)F)[C@@H]4CCC5=CC(=O)CCC5=C43)cc2)cc1 [Example 3, (8S,11R,13S,14S,17S)-17-hydroxy-11-{4-[(E)-3-(4-methoxyphenyl)-propenyl]phenyl}-13-methyl-17-pentafluoroethyl-1,2,6,7,8,11,12,13,14,15,16,17-dodecahydrocyclopenta[a]phenanthren-3-one] | 1.8 |  |  |  | 1.5
